Test results: patent US12617773B2, “Azetidin-3-ylmethanol derivatives as CCR6 receptor modulators” (Idorsia Pharmaceuticals Ltd, priority 2020, dated 2026)

Target: T1, human CCR6 (Homo sapiens, UniProt P51684)
T1 construct: expressed in transfected cells; host or cells: HEK-293
T1 sequence (P51684 1-374): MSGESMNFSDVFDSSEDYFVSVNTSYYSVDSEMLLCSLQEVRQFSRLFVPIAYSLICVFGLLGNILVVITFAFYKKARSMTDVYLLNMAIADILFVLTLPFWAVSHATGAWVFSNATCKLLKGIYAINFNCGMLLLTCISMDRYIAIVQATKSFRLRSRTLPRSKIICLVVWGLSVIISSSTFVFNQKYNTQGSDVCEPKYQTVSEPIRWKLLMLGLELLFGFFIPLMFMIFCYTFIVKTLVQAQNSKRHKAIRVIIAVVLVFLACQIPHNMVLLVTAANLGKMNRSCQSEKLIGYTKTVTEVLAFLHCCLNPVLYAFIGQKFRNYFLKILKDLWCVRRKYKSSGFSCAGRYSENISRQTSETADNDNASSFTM
Assay: FLIPR assay (inhibition of CCL20-induced calcium signal)
Assay type: cell-based
Conditions: HEK-293 cells expressing human CCR6; mean values where determined several times; read-out: FLIPR IC50
In short: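 Dye-loaded HEK-293 cells expressing human CCR6 were preincubated with compound for 30 min at room temperature in the dark, then challenged with 10 nM CCL20 (final). Fluorescence was tracked on FLIPR, and baseline-subtracted peak emission over base after agonist addition gave inhibition dose-response curves for IC50.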

Row | SMILES | IC50 [nM]
1 | COCCCc1ccc(C(O)(c2cncc(N3CCCC3)c2)C2(C)CN(C)C2)cc1 (centres unmarked) [Example 309, (1,3-Dimethyl-azetidin-3-yl)-[4-(3-methoxy-propyl)-phenyl]-(5-pyrrolidin-1-yl-pyridin-3-yl)-methanol] | 58.6
2 | CN1CC(C)([C@](O)(c2ccc(C3CC3)cc2)c2cncc(N3CCCC3)c2)C1 [Example 310] | 48.6
3 | Cc1ccc([C@](O)(c2cncc(N3CCCC3)c2)C2(C)CN(C)C2)cc1 [Example 311] | 140
4 | CC(C)c1ccc([C@](O)(c2cncc(C3CCN(C(=O)OC(C)(C)C)CC3)c2)C2(C)CN(C)C2)cc1 [Example 312, 5-[(R)-(1,3-Dimethyl-azetidin-3-yl)-hydroxy-(4-isopropyl-phenyl)-methyl]-3′,4′,5′,6′-tetrahydro-2′H-[3,4′]bipyridinyl-1′-carboxylic acid tert-butyl ester] | 23.9
5 | CC(C)c1ccc([C@](O)(c2cncc(C3CCN(C(=O)OC(C)(C)C)C3)c2)C2(C)CN(C)C2)cc1 (some centres unmarked) [Example 313] | 158
6 | CC(C)c1ccc([C@](O)(c2cncc(C3CCOCC3)c2)C2(C)CN(C)C2)cc1 [Example 314] | 111
7 | CC(C)c1ccc([C@](O)(c2cncc(C3CCN(c4ccccn4)CC3)c2)C2(C)CN(C)C2)cc1 [Example 315, (R)-(1,3-Dimethyl-azetidin-3-yl)-(4-isopropyl-phenyl)-(3′,4′,5′,6′-tetrahydro-2′H-[2,1′; 4′,3″]terpyridin-5″-yl)-methanol] | 23.6
8 | CC(C)c1ccc([C@](O)(c2cncc(C3CCCO3)c2)C2(C)CN(C)C2)cc1 (stereo partly drawn) [Example 318, (R)-(1,3-Dimethyl-azetidin-3-yl)-(4-isopropyl-phenyl)-[5-(tetrahydro-furan-2-yl)-pyridin-3-yl]-methanol] | 154
9 | CC1CCC(c2cncc([C@@](O)(c3ccc(C(C)C)cc3)C3(C)CN(C)C3)c2)O1 (some centres unmarked) [Example 319] | 94.4
10 | CC(C)c1ccc([C@](O)(c2cncc(C3CCC(C)(C)O3)c2)C2(C)CN(C)C2)cc1 (some centres unmarked) [Example 320] | 86
11 | CC(C)c1ccc([C@](O)(c2cncc(CC(F)(F)CO)c2)C2(C)CN(C)C2)cc1 [Example 321, 3-{5-[(R)-(1,3-Dimethyl-azetidin-3-yl)-hydroxy-(4-isopropyl-phenyl)-methyl]-pyridin-3-yl}-2,2-difluoro-propan-1-ol] | 273
12 | Cc1cnc(-c2cncc([C@@](O)(c3ccc(C(C)C)cc3)C3(C)CN(C)C3)c2)o1 [Example 322, (R)-(1,3-Dimethyl-azetidin-3-yl)-(4-isopropyl-phenyl)-[5-(5-methyl-oxazol-2-yl)-pyridin-3-yl]-methanol] | 49.9
13 | CC(C)c1ccc([C@](O)(c2cncc(-c3ncc(C4CCOCC4)o3)c2)C2(C)CN(C)C2)cc1 [Example 323, (R)-(1,3-Dimethyl-azetidin-3-yl)-(4-isopropyl-phenyl)-{5-[5-(tetrahydro-pyran-4-yl)-oxazol-2-yl]-pyridin-3-yl}-methanol] | 67.8
14 | CC(C)c1ccc([C@](O)(c2cncc(COc3ccc(F)cc3)c2)C2(C)CN(C)C2)cc1 [Example 324, (R)-(1,3-Dimethyl-azetidin-3-yl)-[5-(4-fluoro-phenoxymethyl)-pyridin-3-yl]-(4-isopropyl-phenyl)-methanol] | 15
15 | CC(C)NC(=O)OCc1cncc([C@@](O)(c2ccc(C(C)C)cc2)C2(C)CN(C)C2)c1 [Example 325, Isopropyl-carbamic acid 5-[(R)-(1,3-dimethyl-azetidin-3-yl)-hydroxy-(4-isopropyl-phenyl)-methyl]-pyridin-3-ylmethyl ester] | 595
16 | CC(C)c1ccc([C@](O)(c2cncc(CCOCc3ccccc3)c2)C2(C)CN(C)C2)cc1 [Example 326, (R)-[5-(2-Benzyloxy-ethyl)-pyridin-3-yl]-(1,3-dimethyl-azetidin-3-yl)-(4-isopropyl-phenyl)-methanol] | 83.3
17 | CC(C)c1ccc([C@](O)(c2cncc(C3CCC(C)(O)CC3)c2)C2(C)CN(C)C2)cc1 (stereo partly drawn) [Example 327, 4-{5-[(R)-(1,3-Dimethyl-azetidin-3-yl)-hydroxy-(4-isopropyl-phenyl)-methyl]-pyridin-3-yl}-1-methyl-cyclohexanol] | 168
18 | CC(C)c1ccc([C@](O)(c2cncc(C3CC3C(C)(C)O)c2)C2(C)CN(C)C2)cc1 (stereo partly drawn) [Example 328, 2-(2-{5-[(R)-(1,3-Dimethyl-azetidin-3-yl)-hydroxy-(4-isopropyl-phenyl)-methyl]-pyridin-3-yl}-cyclopropyl)-propan-2-ol] | 187
19 | CC(C)c1ccc([C@](O)(c2ccnc(-c3noc(C4CCOCC4)n3)c2)C2(C)CN(C)C2)cc1 [Example 329, (S)-(1,3-Dimethyl-azetidin-3-yl)-(4-isopropyl-phenyl)-{2-[5-(tetrahydro-pyran-4-yl)-[1,2,4]oxadiazol-3-yl]-pyridin-4-yl}-methanol] | 485
20 | CC(C)c1ccc(C(O)(c2cnc(N3CCCC3)nc2)C2(C)CN(C)C2)cc1 (centres unmarked) [Example 330, (1,3-Dimethyl-azetidin-3-yl)-(4-isopropyl-phenyl)-(2-pyrrolidin-1-yl-pyrimidin-5-yl)-methanol] | 143
21 | CC(C)c1ccc(C(O)(c2cncc(N3CCCC3)n2)C2(C)CN(C)C2)cc1 (centres unmarked) [Example 331, (1,3-Dimethyl-azetidin-3-yl)-(4-isopropyl-phenyl)-(6-pyrrolidin-1-yl-pyrazin-2-yl)-methanol] | 50.1
22 | [2H]C([2H])([2H])C(=O)NC1(c2nc(-c3cncc([C@@](O)(c4ccc(C(C)C)cc4)C4(C)CN(C)C4)c3)no2)CC1 [Example 332] | 290
23 | [2H]C([2H])([2H])C(=O)N(C)C1(c2nc(-c3cncc([C@@](O)(c4ccc(C(C)C)cc4)C4(C)CN(C)C4)c3)no2)CC1 [Example 333] | 113
24 | [2H]C([2H])([2H])C(=O)N(C)Cc1nc(-c2cncc([C@@](O)(c3ccc(C(C)C)cc3)C3(C)CN(C)C3)c2)no1 [Example 334] | 216
25 | CC(C)c1ccc([C@](O)(c2cncc(-c3noc(CNC(=O)CO)n3)c2)C2(C)CN(C)C2)cc1 [Example 335] | 337
26 | [2H]C([2H])([2H])C(=O)NCc1nc(-c2cncc([C@@](O)(c3ccc(C(C)C)cc3)C3(C)CN(C)C3)c2)no1 [Example 336] | 207
27 | CC(C)c1ccc([C@](O)(c2cncc(-c3noc(CC(C)(C)O)n3)c2)C2(C)CN(C(C)C)C2)cc1 [Example 337, 1-(3-{5-[(R)-Hydroxy-(1-isopropyl-3-methyl-azetidin-3-yl)-(4-isopropyl-phenyl)-methyl]-pyridin-3-yl}-[1,2,4]oxadiazol-5-yl)-2-methyl-propan-2-ol] | 95.1
28 | CCN1CC(C)([C@](O)(c2ccc(C(C)C)cc2)c2cncc(-c3noc(CC(C)(C)O)n3)c2)C1 [Example 338, 1-(3-{5-[(R)-(1-Ethyl-3-methyl-azetidin-3-yl)-hydroxy-(4-isopropyl-phenyl)-methyl]-pyridin-3-yl}-[1,2,4]oxadiazol-5-yl)-2-methyl-propan-2-ol] | 93.8
29 | CC(C)c1ccc([C@](O)(c2cncc(-c3noc(C(C)(C)O)n3)c2)C2(C)CN(C(C)C)C2)cc1 [Example 339, 2-(3-{5-[(R)-Hydroxy-(1-isopropyl-3-methyl-azetidin-3-yl)-(4-isopropyl-phenyl)-methyl]-pyridin-3-yl}-[1,2,4]oxadiazol-5-yl)-propan-2-ol] | 100
